Counter-ions that a name gives are not always drawn. Like-named read-outs stand apart in the source and are kept apart here.
What was measured:
[1] = molecular target: T1, human Y4 receptor (Homo sapiens, UniProt P50391); assay: Radioligand binding to membranes, cloned human Y4 receptor; conditions: hNPY-4 (one cell for Y1, Y2, Y4), read-out: Ki, nM hNPY-1,2,4
T1 construct: expressed in transfected cells; host or cells: mouse fibroblast LM(tk-) cells, e.g. L-hY4-3 (ATCC CRL-11779)
Description: (§1) Binding of the compounds of the present invention to human Y1, Y2, Y4, and Y5 receptors was evaluated using stably transfected 293 or LM(tk-) cells as described above.
(§2) Membranes were harvested from COS-7 cells 48 hours after transient transfection. Adherent cells were washed twice in ice-cold phosphate buffered saline (138 mM NaCl, 8.1 mM Na2HPO4, 2.5 mM KCl, 1.2 mM KH2PO4, 0.9 mM CaCl2, 0.5 mM MgCl2, pH 7.4) and lysed by sonication in ice-cold sonication buffer (20 mM Tris-HCl, 5 mM EDTA, pH 7.7). Large particles and debris were cleared by low speed centrifugation (200×g, 5 min, 4° C.). Membranes were collected from the supernatant fraction by centrifugation (32,000×g, 18 min, 4° C.), washed with ice-cold hypotonic buffer, and collected again by centrifugation (32,000×g, 18 min, 4° C.). The final membrane pellet was resuspended by sonication into a small volume of ice-cold binding buffer (˜1 ml for every 5 plates: 10 mM NaCl, 20 mM HEPES, 0.22 mM KH2PO4, 1.26 mM CaCl2, 0.81 mM MgSO4, pH 7.4). Protein concentration was measured by the Bradford method (Bradford, 1976) using Bio-Rad Reagent, with bovine serum albumin as a standard. Membranes were held on ice for up to one hour and used fresh, or flash-frozen and stored in liquid nitrogen.
(§3) Membranes were prepared similarly from 293, LM(tk-), and NIH-3T3 cells.
(§4) Membrane suspensions were diluted in binding buffer supplemented with 0.1% bovine serum albumin to yield an optimal membrane protein concentration so that ^125I-PYY (or alternative radioligand such as ^125I-NPY, ^125I-NYY3-36, or ^125I-[Leu^31Pro^34]PYY) bound by membranes in the assay was less than 10% of ^125I-PYY (or alternative radioligand) delivered to the sample (100,000 dpm/sample=0.08 nM for competition binding assays). ^125I-PYY (or alternative radioligand) and peptide competitors were also diluted to desired concentrations in supplemented binding buffer. Individual samples were then prepared in 96-well polypropylene microtiter plates by mixing ^125I-PYY (25 μL) (or alternative radioligand), competing peptides or supplemented binding buffer (25 μL), and finally, membrane suspensions (200 μL). Samples were incubated in a 30° C. water bath with constant shaking for 120 min. Incubations were terminated by filtration over Whatman GF/C filters (pre-coated with 1% polyethyleneimine and air-dried before use), followed by washing with 5 mL of ice-cold binding buffer. Filter-trapped membranes were impregnated with MeltiLex solid scintillant (Wallac, Turku, Finland) and counted for ^125I in a Wallac Beta-Plate Reader. Alternatively, incubations were carried out in GF/C filter plates (pre-coated with 1% polyethyleneimine and air-dried before use), followed by vacuum filtration and three washes of 300 μL of ice-cold binding buffer. 50 μL of UltimaGold (Packard) scintillant were added and counted for ^125I, in a Wallac MicroBeta Trilux. Non-specific binding was defined by 300 nM human NPY for all receptors except the Y4 subtypes; 100 nM human PP was used for the human Y4 and 100 nM rat PP for the rat Y4.

[2] = molecular target: T2, human Y1 receptor (Homo sapiens, UniProt P25929); assay: Radioligand binding to membranes, cloned human Y1 receptor; conditions: hNPY-1 (one cell for Y1, Y2, Y4), read-out: Ki, nM hNPY-1,2,4
T2 construct: expressed in transfected cells; host or cells: human embryonic kidney 293 cells, e.g. 293-hY1-5 (ATCC CRL-12121)
T2 sequence (P25929 1-384): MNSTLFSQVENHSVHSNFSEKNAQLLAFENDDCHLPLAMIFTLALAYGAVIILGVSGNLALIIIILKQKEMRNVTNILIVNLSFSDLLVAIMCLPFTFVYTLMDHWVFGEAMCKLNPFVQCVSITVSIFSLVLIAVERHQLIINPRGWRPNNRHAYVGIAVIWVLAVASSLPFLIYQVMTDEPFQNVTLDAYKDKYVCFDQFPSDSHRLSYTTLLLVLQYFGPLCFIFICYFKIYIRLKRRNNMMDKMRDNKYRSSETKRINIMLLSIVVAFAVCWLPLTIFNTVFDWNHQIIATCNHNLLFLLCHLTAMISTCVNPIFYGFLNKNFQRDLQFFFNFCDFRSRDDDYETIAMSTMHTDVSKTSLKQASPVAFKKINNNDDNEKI
Description: as §1, §2, §3, §4

[3] = molecular target: T3, human Y2 receptor (Homo sapiens, UniProt P49146); assay: Radioligand binding to membranes, cloned human Y2 receptor
T3 sequence (P49146 1-381): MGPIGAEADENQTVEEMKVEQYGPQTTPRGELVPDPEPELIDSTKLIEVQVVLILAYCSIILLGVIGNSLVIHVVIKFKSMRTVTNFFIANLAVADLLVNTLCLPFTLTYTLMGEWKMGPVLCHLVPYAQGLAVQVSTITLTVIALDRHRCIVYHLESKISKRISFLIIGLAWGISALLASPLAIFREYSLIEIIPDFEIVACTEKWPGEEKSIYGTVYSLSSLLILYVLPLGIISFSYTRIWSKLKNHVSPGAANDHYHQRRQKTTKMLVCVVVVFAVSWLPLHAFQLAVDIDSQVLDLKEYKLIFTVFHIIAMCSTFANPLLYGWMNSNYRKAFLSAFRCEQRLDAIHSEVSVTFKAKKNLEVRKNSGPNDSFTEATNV
Description: as §1, §2, §3, §4

[4] = molecular target: T4, human Y5 receptor (Homo sapiens, UniProt Q15761); assay: Radioligand binding to membranes, cloned human Y5 receptor; conditions: read-out: Ki, nM hNPY-5
T4 construct: expressed in transfected cells; host or cells: mouse fibroblast LM(tk-) cells, e.g. L-hY5-7 (ATCC CRL-11995)
T4 sequence (Q15761 1-445): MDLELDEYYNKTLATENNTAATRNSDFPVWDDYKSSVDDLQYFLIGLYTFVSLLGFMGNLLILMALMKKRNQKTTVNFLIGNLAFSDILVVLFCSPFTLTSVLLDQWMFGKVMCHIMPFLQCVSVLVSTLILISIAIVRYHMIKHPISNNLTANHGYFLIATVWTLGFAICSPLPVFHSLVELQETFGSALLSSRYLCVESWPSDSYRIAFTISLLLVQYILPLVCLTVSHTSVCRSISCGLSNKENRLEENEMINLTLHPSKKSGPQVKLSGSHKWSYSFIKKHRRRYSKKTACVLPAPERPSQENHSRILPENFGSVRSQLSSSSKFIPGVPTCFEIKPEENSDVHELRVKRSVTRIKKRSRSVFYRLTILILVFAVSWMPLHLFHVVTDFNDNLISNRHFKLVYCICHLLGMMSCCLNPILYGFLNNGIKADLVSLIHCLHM

T1 sequence (P50391 whole entry): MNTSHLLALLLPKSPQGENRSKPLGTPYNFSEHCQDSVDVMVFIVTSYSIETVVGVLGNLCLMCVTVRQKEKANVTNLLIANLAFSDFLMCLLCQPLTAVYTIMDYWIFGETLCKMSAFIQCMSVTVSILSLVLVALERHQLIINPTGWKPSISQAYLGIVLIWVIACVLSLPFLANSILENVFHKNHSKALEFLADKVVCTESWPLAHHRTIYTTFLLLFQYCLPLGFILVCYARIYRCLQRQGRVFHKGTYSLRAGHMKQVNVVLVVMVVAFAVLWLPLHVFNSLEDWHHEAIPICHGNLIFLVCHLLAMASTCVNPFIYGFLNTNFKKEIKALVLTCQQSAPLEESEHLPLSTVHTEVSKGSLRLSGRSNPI

Structure (SMILES): COc1ccc(S(=O)(=O)NCCCCCNc2nc(-c3ccccn3)cs2)cc1 (as salt: chloride) [Example 62, 2-(5-(4-Methoxyphenyl)sulfonylamino)pentylamino-4-(2-pyridyl)thiazole hydrogen chloride]
- melting point: 54 to 57 °C

Structure (SMILES): O=S(=O)(NCCCCCNc1nc(-c2ccncc2)cs1)c1ccccc1F (as salt: chloride) [Example 73, 2-(5-(2-Fluoro)phenylsulfonylamino)pentylamino-4-(4-pyridyl)thiazole hydrogen chloride]
- melting point: 97 to 98 °C

Structure (SMILES): NS(=O)(=O)NCCCCCNc1nc(-c2ccccn2)cs1 (as salt: chloride) [Example 69, 2-(5-(Aminosulfonylamino)pentyl)amino-4-(2-pyridyl)thiazole hydrogen chloride]
- melting point: 68 to 70 °C

Structure (SMILES): CCS(=O)(=O)NCCCCCNc1nc(-c2ccccn2)cs1 (as salt: chloride) [Example 67, 2-(5-(Ethylsulfonylamino)pentyl)amino-4-(2-pyridyl)thiazole hydrogen chloride]
- melting point: 49 to 51 °C

Structure (SMILES): Cc1noc(C)c1S(=O)(=O)NCCCCCNc1nc(-c2ccncc2)cs1 (as salt: chloride) [Example 74, 2-(5-(3,5-Dimethylisoxazol-4-yl)sulfonylamino)pentylamino-4-(4-pyridyl)thiazole hydrogen chloride]
- melting point: 108 to 109 °C

Structure (SMILES): Cc1noc(C)c1S(=O)(=O)N[C@H]1CC[C@H](CNc2nc(-c3ccccn3)cs2)CC1 (as salt: chloride) [Example 85, trans-2-(4-(3,5-Dimethyl-4-isoxazolyl)sulfonylamino)-cyclohexylmethylamino-4-(2-pyridyl)thiazole dihydrogen chloride]
- melting point: 98 to 101 °C

Structure (SMILES): COc1ccc(C)cc1S(=O)(=O)NCCCCCNc1nc(-c2ccncc2)cs1 (as salt: chloride) [Example 75, 2-(5-(2-Methoxy-5-methyl)phenylsulfonylamino)pentylamino-4-(4-pyridyl)thiazole hydrogen chloride]
- melting point: 116 to 117 °C

Structure (SMILES): Cc1noc(C)c1S(=O)(=O)NCCCCCNc1nc(-c2cccnc2)cs1 (as salt: chloride) [Example 71, 2-(5-(3,5-Dimethylisoxazol-4-yl)sulfonylamino)pentylamino-4-(3-pyridyl)thiazole hydrogen chloride]
- melting point: 114 to 115 °C

Structure (SMILES): COc1ccc(C)cc1S(=O)(=O)N[C@H]1CC[C@H](CNc2nc(-c3ccccn3)cs2)CC1 (as salt: chloride) [Example 83, trans-2-(4-(2-Methoxy-5-methylphenyl)sulfonylamino)-cyclohexylmethylamino-4-(2-pyridyl)thiazole dihydrogen chloride]
- melting point: 111 to 113 °C

Structure (SMILES): COc1ccc(C)cc1S(=O)(=O)NCCCCCNc1nc(-c2cccnc2)cs1 (as salt: chloride) [Example 72, 2-(5-(2-Methoxy-5-methyl)phenylsulfonylamino)pentylamino-4-(3-pyridyl)thiazole hydrogen chloride]
- melting point: 119 to 120 °C

Structure (SMILES): COc1ccc(C)cc1S(=O)(=O)NCCCCCNc1nc(-c2ccccn2)cs1 (as salt: chloride) [Example 65, 2-(5-(2-Methoxy-5-methylphenyl)sulfonylamino)pentylamino-4-(2-pyridyl)thiazole hydrogen chloride]
- melting point: 155 to 156 °C

Structure (SMILES): O=S(=O)(N[C@H]1CC[C@H](CNc2nc(-c3cccnc3)cs2)CC1)c1ccccc1F (as salt: chloride) [Example 86, trans-2-(4-(2-Fluorophenyl)sulfonylamino)cyclohexylmethyl-amino-4-(3-pyridyl)thiazole dihydrogen chloride]
- melting point: 141 to 142 °C

Structure (SMILES): O=S(=O)(NCCCCCNc1nc(-c2ccccn2)cs1)c1ccccc1F (as salt: chloride) [Example 61, 2-(5-(2-Fluorophenyl)sulfonylamino)pentylamino-4-(2-pyridyl)-thiazole hydrogen chloride]
- melting point: 60 to 63 °C

Structure (SMILES): Cc1noc(C)c1S(=O)(=O)NCCCCCNc1nc(-c2cccnc2)cs1 [Example 71, 2-(5-(3,5-Dimethylisoxazol-4-yl)sulfonylamino)pentylamino-4-(3-pyridyl)thiazole hydrogen chloride]
- Ki ([1]; Table 5): > 10000 nM
- Ki ([2]; Table 5): > 10000 nM
- Ki [3]: > 10 µM
- Ki ([4]; Table 5): 37 nM

Structure (SMILES): O=S(=O)(Cc1ccccc1)NCCCCCNc1nc(-c2ccccn2)cs1 (as salt: chloride) [Example 66, 2-(5-(Benzylsulfonylamino)pentylamino-4-(2-pyridyl)thiazole hydrogen chloride]
- melting point: 62 to 64 °C

Structure (SMILES): O=S(=O)(NCCCCCNc1nc(-c2ccccn2)cs1)C(F)(F)F (as salt: chloride) [Example 68, 2-(5-(Trifluoromethylsulfonylamino)pentyl)amino-4-(2-pyridyl)thiazole hydrogen chloride]
- melting point: 63 to 65 °C

Structure (SMILES): CS(=O)(=O)NCCCCCNc1nc2c(s1)CCSc1ccc(F)cc1-2 [Example 159, N-{5-[(9-Fluoro-4,5-dihydrobenzo[2,3]thiepino[4,5-d][1,3]thiazol-2-yl)amino]pentyl}methanesulfonamide]
- Ki ([1]; Table 6): > 10000 nM
- Ki ([2]; Table 6): > 10000 nM
- Ki [3]: > 10 µM
- Ki ([4]; Table 6): 6.1 nM

Structure (SMILES): O=S(=O)(NCCCCCNc1nc(-c2cccnc2)cs1)c1ccccc1F (as salt: chloride) [Example 70, 2-(5-(2-Fluorophenyl)sulfonylamino)pentylamino-4-(3-pyridyl)thiazole hydrogen chloride]
- melting point: 84 to 85 °C

Structure (SMILES): O=S(=O)(NCCCCCNc1nc(-c2ccccn2)cs1)c1cccs1 (as salt: chloride) [Example 60, 4-(2-Pyridyl)-2-(5-(2-thienyl)sulfonylaminopentyl)-amino-thiazole hydrogen chloride]
- melting point: 75 to 77 °C

Structure (SMILES): CCS(=O)(=O)NC[C@H]1CC[C@H](Nc2nc3c(s2)CCSc2ccccc2-3)CC1 [Example 107, N1-{[4-(4,5-Dihydrobenzo[2,3]thiepino[4,5-d][1,3]thiazol-2-ylamino)cyclohexyl]methyl}-1-ethanesulfonamide]
- Ki ([1]; Table 6): > 10000 nM
- Ki ([2]; Table 6): > 10000 nM
- Ki [3]: > 10 µM
- Ki ([4]; Table 6): 5.1 nM

Structure (SMILES): O=S(=O)(NCCCCCNc1nc(-c2ccccn2)cs1)c1ccc(F)c(F)c1 (as salt: chloride) [Example 64, 2-(5-(3,4-Difluorophenyl)sulfonylamino)pentylamino-4-(2-pyridyl)thiazole hydrogen chloride]
- melting point: 65 to 68 °C

Structure (SMILES): COc1ccc(C)cc1S(=O)(=O)NCCCCCNc1nc(-c2ccn(S(=O)(=O)c3ccccc3)c2)cs1 [Example 80, N1-[5-({4-[1-(Phenylsulfonyl)-1H-3-pyrrolyl]-1,3-thiazol-2-yl}amino)pentyl]-2-methoxy-5-methyl-1-benzenesulfonamide]
- Ki ([1]; Table 5): > 10000 nM
- Ki ([2]; Table 5): > 10000 nM
- Ki [3]: > 10 µM
- Ki ([4]; Table 5): 40 nM

— US7189720B2 (H. Lundbeck A/S, priority 1999, dated 2007)
